In patent US9169209B2, “Compounds and compositions for the inhibition of NAMPT” (FORMA TM, LLC, priority 2011, dated 2015):

Legend:
A2780 cells = test: In-Vitro Cell Proliferation Assay (SRB, 72 hours); type: cell-based; conditions: Homo sapiens, A2780, 72 h, A2780 cells, 72 hours, sulforhodamine B; read-out: A2780 IC50
Method: After overnight incubation at 37° C. and 5% CO2, the compound titrations were performed in a separate dilution plate by serially diluting the compounds in DMSO to make a 1000× stock. The compounds were then further diluted to 10× final concentration in culture media, whereupon 20 μL of each dilution was added to the plated cells with controls (e.g. DMSO and blank) to make a final volume of 200 μL. The final DMSO concentration in each well was 0.1%. The plates were then incubated for 72 hours at 37° C. in a 5% CO2 incubator. The number of viable cells was then assessed using sulforhodamine B (SRB) assay. Cells were fixed at 4° C. for 1 hour with the addition of 50 μL 30% trichloroacetic acid (TCA) to make a final concentration of 6% TCA. The plates were washed four times with H2O and allowed to dry for at least 1 hour, whereupon 100 μL of a 4% SRB in 1% acetic acid solution was added to each well and incubated at room temperature for at least 30 minutes. The plates were then washed three times with 1% acetic acid, dried, and treated with 100 μL of 10 mM Tris-Base solution. The plates were then read in a microplate reader at an absorbance of 570 nm. Background was generated on a separate plate with media only.
First, the signals from the background plate are averaged and then the background was subtracted from the test plates.
wherein x denotes the average signal of the compound-treated cells and y denotes the average signal of the DMSO-treated cells.
wherein X denotes the compound concentration 1, Y denotes the compound concentration 2, XX denotes the % inhibition at compound concentration 1 (X), and YY denotes the % inhibition at compound concentration 2 (Y).

NAMPT = NAMPT (Homo sapiens (Human), UniProt P43490); test: Biochemical Inhibition Assay (NAMPT enzymatic reaction, NMN quantified by mass spectrometry); conditions: recombinant His-tagged NAMPT, 33 nM; 1 μM NAM; read-out: Biochem IC50
Method: Recombinant His-tagged NAMPT was produced in E. coli cells, purified over a Ni column, and further purified over a size-exclusion column by XTAL Biostructures.
The NAMPT enzymatic reactions were carried out in Buffer A (50 mM Hepes pH 7.5, 50 mM NaCl, 5 mM MgCl2, and 1 mM THP) in 96-well V-bottom plates. The compound titrations were performed in a separate dilution plate by serially diluting the compounds in DMSO to make a 100× stock. […] The compound and enzyme mix was incubated for 15 minutes at room temperature, then 10 μL of 10× substrate and co-factors in Buffer A were added to the test well to make a final concentration of 1 μM NAM, 100 μM 5-Phospho-D-ribose 1-diphosphate (PRPP), and 2.5 mM Adenosine 5′-triphosphate (ATP). The reaction was allowed to proceed for 30 minutes at room temperature, then was quenched with the addition of 11 μL of a solution of formic acid and L-Cystathionine to make a final concentration of 1% formic acid and 10 μM L-Cystathionine. Background and signal strength was determined by addition (or non-addition) of a serial dilution of NMN to a pre-quenched enzyme and cofactor mix.
A mass spectrometry-based assay was used to measure the NAMPT reaction product (NMN) and the internal control (L-Cystathionine). NMN and L-Cystathionine were detected using the services of Biocius Lifesciences with the RapidFire system. In short, the NMN and L-Cystathionine are bound to a graphitic carbon cartridge in 0.1% formic acid, eluted in 30% acetonitrile buffer, and injected into a Sciex 4000 mass spectrometer. The components of the sample were ionized with electrospray ionization and the positive ions were detected. […] The fragments are quantified and the analyzed by the following method.
First the NMN signal is normalized to the L-Cystathionine signal by dividing the NMN signal by the L-Cystathionine signal for each well. The signal from the background wells are averaged and subtracted from the test plates.
Wherein x denotes the average signal of the compound treated wells and y denotes the average signal of the DMSO treated wells.
IC50s are Determined Using Excel and this Formula.
Wherein X denotes the compound concentration 1, Y denotes the compound concentration 2, XX denotes the % inhibition at compound concentration 1 (X), and YY denotes the % inhibition at compound concentration 2 (Y).

NAMPT, sequence (P43490 whole entry): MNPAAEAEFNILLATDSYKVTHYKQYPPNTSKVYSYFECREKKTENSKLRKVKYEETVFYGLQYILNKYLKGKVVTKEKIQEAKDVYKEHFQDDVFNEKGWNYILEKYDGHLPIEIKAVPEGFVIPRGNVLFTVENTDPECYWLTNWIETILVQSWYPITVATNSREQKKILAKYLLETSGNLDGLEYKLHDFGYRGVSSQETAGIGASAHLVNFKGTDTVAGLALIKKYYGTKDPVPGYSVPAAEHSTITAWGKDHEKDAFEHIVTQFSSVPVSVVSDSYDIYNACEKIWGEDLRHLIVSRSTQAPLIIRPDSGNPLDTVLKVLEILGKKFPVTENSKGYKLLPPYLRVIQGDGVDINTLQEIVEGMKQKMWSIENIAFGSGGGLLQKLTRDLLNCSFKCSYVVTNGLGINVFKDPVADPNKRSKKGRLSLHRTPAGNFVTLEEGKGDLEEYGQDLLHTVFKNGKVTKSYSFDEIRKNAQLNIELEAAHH

Compound | IC50 (A2780 cells) [nM] | IC50 (NAMPT) [nM]
CCOc1cccc(S(=O)(=O)c2ccc(NC(=O)/C=C/c3cccnc3)cc2)c1 [(2E)-N-{4-[(3-ethoxybenzene)sulfonyl]phenyl}-3-(pyridin-3-yl)prop-2-enamide] | 91.9 | 57.2
COc1cc(OC)cc(S(=O)(=O)c2ccc(NC(=O)/C=C/c3cccnc3)cc2)c1 [(2E)-N-{4-[(3,5-dimethoxybenzene)sulfonyl]phenyl}-3-(pyridin-3-yl)prop-2-enamide] | 44.3 | 20.3
Cc1ccc(S(=O)(=O)c2ccc(NC(=O)/C=C/c3cccnc3)cc2)cc1F [(2E)-N-{4-[(3-fluoro-4-methylbenzene)sulfonyl]phenyl}-3-(pyridin-3-yl)prop-2-enamide] | 196 | 27.6
CCOc1ccc(S(=O)(=O)c2ccc(NC(=O)/C=C/c3cccnc3)cc2)cc1F [(2E)-N-{4-[(4-ethoxy-3-fluorobenzene)sulfonyl]phenyl}-3-(pyridin-3-yl)prop-2-enamide] | 175 | 34.1
O=C(/C=C/c1cccnc1)Nc1ccc(S(=O)(=O)c2ccc3ncccc3c2)cc1 [(2E)-3-(pyridin-3-yl)-N-[4-(quinoline-6-sulfonyl)phenyl]prop-2-enamide] | 76.2 | 5.4
O=C(/C=C/c1cccnc1)Nc1ccc(S(=O)(=O)c2cccc3c2OCC3)cc1 [(2E)-N-[4-(2,3-dihydro-1-benzofuran-7-sulfonyl)phenyl]-3-(pyridin-3-yl)prop-2-enamide] | 36.1 | 4.9
Cc1ncccc1S(=O)(=O)c1ccc(NC(=O)/C=C/c2cccnc2)cc1 [(2E)-N-[4-(2-methylpyridine-3-sulfonyl)phenyl]-3-(pyridin-3-yl)prop-2-enamide] | 100 to 1000 | 9
O=C(/C=C/c1cccnc1)Nc1ccc(S(=O)(=O)c2cccc3cc[nH]c23)cc1 [(2E)-N-[4-(1H-indole-7-sulfonyl)phenyl]-3-(pyridin-3-yl)prop-2-enamide] | 13.3 | 8.4
O=C(/C=C/c1cccnc1)Nc1ccc(S(=O)(=O)c2cccc3c2Oc2ccccc2S3)cc1 [(2E)-N-[4-(phenoxathiine-4-sulfonyl)phenyl]-3-(pyridin-3-yl)prop-2-enamide] | 50.1 | 7.2
CN(C)c1ccc(S(=O)(=O)c2ccc(NC(=O)/C=C/c3cccnc3)cc2)cn1 [(2E)-N-{4-[6-(dimethylamino)pyridine-3-sulfonyl]phenyl}-3-(pyridin-3-yl)prop-2-enamide] | 78.1 | 5.1
O=C(/C=C/c1cccnc1)Nc1ccc(S(=O)(=O)c2ccc3c(c2)OCO3)cc1 [(2E)-N-[4-(2H-1,3-benzodioxole-5-sulfonyl)phenyl]-3-(pyridin-3-yl)prop-2-enamide] | 100 to 1000 | 9.9
O=C(/C=C/c1cccnc1)Nc1ccc(S(=O)(=O)c2cccc(-n3cccn3)c2)cc1 [(2E)-N-(4-{[3-(1H-pyrazol-1-yl)benzene]sulfonyl}phenyl)-3-(pyridin-3-yl)prop-2-enamide] | 88 | 4.8
Cc1ccc(S(=O)(=O)c2ccc(NC(=O)/C=C/c3cccnc3)cc2)cn1 [(2E)-N-[4-(6-methylpyridine-3-sulfonyl)phenyl]-3-(pyridin-3-yl)prop-2-enamide] | 100 to 1000 | –
O=C(/C=C/c1cccnc1)NCc1ccc(S(=O)(=O)c2ccccc2)cc1 [(2E)-N-{[4-(benzenesulfonyl)phenyl]methyl}-3-(pyridin-3-yl)prop-2-enamide] | 243 | 3
O=C(/C=C/c1cccnc1)Nc1ccc(S(=O)(=O)c2cccc3ccccc23)cc1 [(2E)-N-[4-(naphthalene-1-sulfonyl)phenyl]-3-(pyridin-3-yl)prop-2-enamide] | 18.1 | 4.2
O=C(/C=C/c1cccnc1)Nc1ccc(S(=O)(=O)c2cccc3ccsc23)cc1 [(2E)-N-[4-(1-benzothiophene-7-sulfonyl)phenyl]-3-(pyridin-3-yl)prop-2-enamide] | 106 | 16.1
CN(C)c1ncc(S(=O)(=O)c2ccc(NC(=O)/C=C/c3cccnc3)cc2)cn1 [(2E)-N-{4-[2-(dimethylamino)pyrimidine-5-sulfonyl]phenyl}-3-(pyridin-3-yl)prop-2-enamide] | 73.1 | 7.9
COc1ccc(S(=O)(=O)c2ccc(NC(=O)/C=C/c3cccnc3)cc2)cc1F [(2E)-N-{4-[(3-fluoro-4-methoxybenzene)sulfonyl]phenyl}-3-(pyridin-3-yl)prop-2-enamide] | 103 | 11.5
Cc1ccccc1S(=O)(=O)c1ccc(NC(=O)/C=C/c2cccnc2)cc1 [(2E)-N-{4-[(2-methylbenzene)sulfonyl]phenyl}-3-(pyridin-3-yl)prop-2-enamide] | 100 to 1000 | 33.3
COc1ccc(C(C)C)cc1S(=O)(=O)c1ccc(NC(=O)/C=C/c2cccnc2)cc1 [(2E)-N-(4-{[2-methoxy-5-(propan-2-yl)benzene]sulfonyl}phenyl)-3-(pyridin-3-yl)prop-2-enamide] | 16.7 | 2.6
CS(=O)(=O)c1ccc(S(=O)(=O)c2ccc(NC(=O)/C=C/c3cccnc3)cc2)cc1 [(2E)-N-{4-[(4-methanesulfonylbenzene)sulfonyl]phenyl}-3-(pyridin-3-yl)prop-2-enamide] | 100 to 1000 | 11.4
O=C(/C=C/c1cccnc1)NCc1ccc(S(=O)(=O)N2CC3CCC(C2)O3)cc1 [(2E)-N-[(4-{8-oxa-3-azabicyclo[3.2.1]octane-3-sulfonyl}phenyl)methyl]-3-(pyridin-3-yl)prop-2-enamide] | 386 | 3
Cc1cc(S(=O)(=O)c2ccc(NC(=O)/C=C/c3cccnc3)cc2)ccc1F [(2E)-N-{4-[(4-fluoro-3-methylbenzene)sulfonyl]phenyl}-3-(pyridin-3-yl)prop-2-enamide] | 100 to 1000 | 21.9
O=C(/C=C/c1cccnc1)Nc1ccc(S(=O)(=O)c2cccc3c2oc2ccccc23)cc1 [(2E)-N-(4-{8-oxatricyclo[7.4.0.0^2,^7]trideca-1(13),2,4,6,9,11-hexaene-6-sulfonyl}phenyl)-3-(pyridin-3-yl)prop-2-enamide] | 7.3 | 3.5
O=C(Nc1ccc(S(=O)(=O)c2ccccc2)cc1)/C(F)=C/c1cccnc1 [(2Z)-N-[4-(benzenesulfonyl)phenyl]-2-fluoro-3-(pyridin-3-yl)prop-2-enamide] | 347 | 7
COc1ccc(S(=O)(=O)c2ccc(NC(=O)/C=C/c3cccnc3)cc2)cc1OC [(2E)-N-{4-[(3,4-dimethoxybenzene)sulfonyl]phenyl}-3-(pyridin-3-yl)prop-2-enamide] | 43.6 | 2.5
O=C(/C=C/c1cccnc1)Nc1ccc(S(=O)(=O)c2cnc3ccccc3c2)cc1 [(2E)-3-(pyridin-3-yl)-N-[4-(quinoline-3-sulfonyl)phenyl]prop-2-enamide] | 100 | 3.7
Cn1ncc2ccc(S(=O)(=O)c3ccc(NC(=O)/C=C/c4cccnc4)cc3)cc21 [(2E)-N-[4-(1-methyl-1H-indazole-6-sulfonyl)phenyl]-3-(pyridin-3-yl)prop-2-enamide] | 53 | –
Cc1cccc(S(=O)(=O)c2ccc(NC(=O)/C=C/c3cccnc3)cc2)c1 [(2E)-N-{4-[(3-methylbenzene)sulfonyl]phenyl}-3-(pyridin-3-yl)prop-2-enamide] | 93.3 | –
COc1ccc2cc(S(=O)(=O)c3ccc(NC(=O)/C=C/c4cccnc4)cc3)ccc2c1 [(2E)-N-[4-(6-methoxynaphthalene-2-sulfonyl)phenyl]-3-(pyridin-3-yl)prop-2-enamide] | 100 to 1000 | –
